{
  "source": "patent US20120288544A1",
  "about": "“NOVEL RETIGABINE COMPOSITION” (GLAXO GROUP LIMITED, priority 2010, published 2012)",
  "assay": "pH dependent solubility of retigabine",
  "details": "around pH 2 (stomach) versus around pH 7 (lower intestine)",
  "data": [
    {"smiles": "CCOC(=O)Nc1ccc(NCc2ccc(F)cc2)cc1N", "note": "[Retigabine]", "values": [
      {"measurement": "pH dependent solubility", "result": "more soluble in the acidic conditions of the stomach (around pH 2) than in the near neutral conditions of the lower intestine (around pH 7)"}
    ]}
  ]
}
